US20200016200A1, “MODULATING CYTOTOXIC CELL LYTIC GRANULE POSITIONING TO PROMOTE DIFFUSE KILLING IN CELLULAR THERAPIES” (Baylor College of Medicine, priority 2016, published 2020)
“Also recorded” adds a separate entry of the source.

What was measured:
[1] = system: NK92 cells; assay: Flow cytometry-based degranulation assay (CD107a); format: cell-based, human; conditions: NK92 with K562 targets, 2 hours, vs DMSO
Description: (§1) FIGS. 13A-13E. The effect of ciliobrevin D on degranulation and the increase of bystander killing by NK cells. Flow cytometry-based degranulation assay of NK cells treated with ciliobrevin D or DMSO as vehicle control. 721.221 cells were used as targets for YTS cells and K562 cells were used as targets for NK92 and eNK cells. DMSO or ciliobrevin D-treated NK cells were mixed with their respective target cells and co-cultured at 37° C. for 2 hours in the presence of anti-CD107a antibody, GolgiStop (BD) and analyzed using flow cytometry. Numbers in the representative flow cytometry plots indicate the percentage of CD107a positive eNK (13A), YTS (13B), or NK92 (13C) cells. Standard 4-hour 51Cr cytotoxicity assay of NK cells treated with ciliobrevin D (100 μM) or DMSO control. NK resistant Raji cells were used as innocent bystander cells. […] Bystander killing of Raji cells by YTS (13D, red) and NK92 (13E, red) cells both increased with ciliobrevin D treatment. Representative experiments from three independent experiments for YTS and NK92 cells were shown.
(§2) YTS-CD16, NK92-CD16 and eNK cells were labeled with CellTrace CFSE for 10 min at room temperature. S2 and S2-IC1 cells were pre-incubated with anti-S2 polyclonal IgG antibody at a final dilution of 1:1000 for 30 min at room temperature and washed three times. S2, S2-IgG, S2-IC1 and S2-IC1-IgG cells were then labeled with cell proliferation dye eFluor 670 for 5 min at room temperature. […] and 2×10^5 target cells were mixed in 200 μl complete R10 and incubated for 2 hours at 37° C. in the presence of anti-CD107a antibody and GolgiStop (BD), fixed with 1% paraformaldehyde in PBS and analyzed as described in flow-based conjugation assay.
(§3) Where applicable, YTS, NK92 and eNK cells were pretreated with […] ciliobrevin D (Millipore) for 30 min then washed. DMSO was used as the vehicle control for all inhibitor experiments. The inhibitor was also added into the co-culture with target cells.

[2] = system: YTS cells; assay: Flow cytometry-based degranulation assay (CD107a); format: cell-based, human; conditions: YTS with 721.221 targets, 2 hours, vs DMSO
Description: as §1, §2, §3

[3] = system: eNK cells; assay: Flow cytometry-based degranulation assay (CD107a); format: cell-based, human; conditions: eNK with K562 targets, 2 hours, vs DMSO
Description: as §1, §2, §3

[4] = system: YTS cells; assay: Flow cytometry-based cytotoxicity / bystander killing assay; format: cell-based, human
Description: (§4) Because directed degranulation with converged granules promoted killing efficiency, ciliobrevin D was used to physically prevent convergence in a cell that had received a convergence signal. It was considered that this would allow us to abrogate the killing efficiency benefit imparted by lytic granule convergence. In order to measure killing of both the target and bystander cells in a single experiment, flow cytometry-based cytotoxicity assays were performed, wherein each cell line was labeled with a unique fluorescent dye in the presence of media containing SYTOX Blue viability indicator dye. […] The viability of YTS ([…]), NK92 (FIG. 14E, 14H) and eNK (FIG. 14F, 14I) was not affected by DMSO or ciliobrevin D treatments. […] To ask if it promoted more collateral damage by NK cells 51Cr-labeled Raji cells were added (to serve as innocent bystanders) along with unlabeled 721.221 or K562 target cells. […] YTS or NK92 cells co-cultured with 51Cr-labeled Raji cells in the absence of 721.221 or K562 were unable to kill Raji cells (FIG. 14J). […] Convergence therefore serves to protect innocent bystander cells in complex cellular environments.
(§5) YTS-CD16, NK92-CD16 and eNK cells were labeled with CellTrace CFSE for 10 min at room temperature, washed, and treated with ciliobrevin D or DMSO control as described below in inhibitors. 721.221 and K562 cells were labeled with cell proliferation dye eFluor 670 for 5 min at room temperature. Raji cells were labeled with PKH-26 according to manufacture's protocol. NK cells were then mixed with the corresponding targets and Raji cells at a final volume of 200 μl complete R10 and incubated at 37° C. for 2 hr. Cells were then labeled with SYTOX Blue viability dye for 5 min at room temperature, washed, and run on LSRFortessa flow cytometer (BD).
as §3

[5] = system: eNK cells; assay: as above; format: cell-based, human
Description: as §4, §5, §3

[6] = system: NK92 cells; assay: Standard 4-hour 51Cr cytotoxicity assay; format: cell-based, human; conditions: ciliobrevin D 100 μM vs DMSO
Description: as §1, §4
(§6) Standard 51Cr-release assays were performed as previously described (Orange et al., 2011). Where indicated, 51Cr51-labeled target or “bystander” cells were mixed with unlabeled target or “bystander” cells to test the indirect lysis of targets. For ADCC, Raji cells were incubated with 20 μg/ml of rituximab in complete R10 medium for 20 min at 37° C., and washed three times before adding to eNK cells.
(§7) Where applicable, YTS, NK92 and eNK cells were pretreated with […] ciliobrevin D (Millipore) for 30 min then washed. […]

[7] = system: YTS cells; assay: Standard 4-hour 51Cr cytotoxicity assay; format: cell-based, human; conditions: ciliobrevin D 100 μM vs DMSO
Description: as §1, §4, §6, §7

[8] = system: CD19 CAR NK cells; assay: Standard 4-hour 51Cr cytotoxicity assay, bystander killing; format: cell-based; conditions: for more bystander cells lysed compared to DMSO: wildtype Daoy bystanders, Daoy-CD19 inciting targets
Description: FIG. 22. Bystander killing with increasing amounts of ciliobrevin D in the presence of CD19 CAR-bearing NK cells. Standard 4-hour ^51Cr cytotoxicity assay of CD19 CAR NK cells treated with ciliobrevin D (12.5, 25, and 50 μM) or DMSO control. Daoy-CD19 cells were used as inciting target cells to activate CD19 CAR-bearing NK cells. Wildtype Daoy cells were used as innocent bystander cells to measure the degree of collateral damage caused by non-directional degranulation.
Similarly, compared to DMSO, ciliobrevin D-treated CD19 CAR NK cells lyse approximately 24%, 39% and 40% more bystander cells at the concentration of 12.5, 25 and 50 μM, respectively (FIG. 22). […] FIG. 23 and FIG. 24 are time-lapse images of videos of control ([…]) and ciliobrevin D-treated ([…]) CD19 CAR T cells. […] In the control group, however, lytic granules converge immediately upon interacting with the target cell and remain tightly clustered until target is killed by the CD19 CAR T cell as indicated by uptake of the SYTOX Blue viability dye.

Q: How did the “proportion of cells that degranulated (CD107a positive)” value (shortened to “proportion of cells that degranulated”) [1] turn out when `N#CC(C(=O)c1ccc(Cl)cc1Cl)=C1NC(=O)c2ccc(Cl)cc2N1` [ciliobrevin D, 2-(7-chloro-4-oxo-3,4-dihydroquinazolin-2(1H)-ylidene)-3-(2,4-dichlorophenyl)-3-oxopropanenitrile] was run?
A: decreased

Q: What about the “proportion of cells that degranulated” value [2] of the same compound?
A: decreased

Q: And the “proportion of cells that degranulated” value [3]?
A: increased

Q: And the “specific lysis of susceptible target cells” value ([4]; YTS against 721.221, Raji bystander cells added, vs DMSO)?
A: no change in killing; also recorded: not affected

Q: What about the “killing of susceptible target cells” value ([4]; YTS against 721.221, absence of Raji bystander cells, vs DMSO) of the same compound?
A: did not affect killing; also recorded: not affected

Q: What about the “non-specific lysis (bystander killing) of Raji cells” value ([4]; YTS with 721.221 inciting targets, vs DMSO) of the same compound?
A: killing of the bystander Raji cells in a dose-dependent manner; also recorded: increased

Q: What about the “viability of NK cells” value ([4]; YTS, standard cytotoxicity and bystander killing assays) of the same compound?
A: not affected; also recorded: not different

Q: And the “specific lysis of susceptible target cells” value ([5]; eNK against K562, Raji bystander cells added, vs DMSO)?
A: no change in killing; also recorded: not affected

Q: What about the “killing of susceptible target cells” value ([5]; eNK against K562, absence of Raji bystander cells, vs DMSO) of the same compound?
A: did not affect killing; also recorded: not affected

Q: What about the “non-specific lysis (bystander killing) of Raji cells” value ([5]; eNK with K562 inciting targets, vs DMSO) of the same compound?
A: killing of the bystander Raji cells in a dose-dependent manner; also recorded: increased

Q: And the “viability of NK cells” value ([5]; eNK, standard cytotoxicity and bystander killing assays)?
A: not affected; also recorded: not different

Q: What about the “lysis of susceptible target cells (51Cr release)” value ([6]; NK92 against K562) of the same compound?
A: did not substantively alter total killing; also recorded: not affected

Q: What about the “non-specific lysis (bystander killing) of 51Cr-labeled Raji cells” value ([6]; NK92 with unlabeled K562 targets) of the same compound?
A: more non-specific lysis; also recorded: increased

Q: What about the “lysis of susceptible target cells (51Cr release)” value ([7]; YTS against 721.221) of the same compound?
A: did not substantively alter total killing; also recorded: slightly increased

Q: And the “non-specific lysis (bystander killing) of 51Cr-labeled Raji cells” value ([7]; YTS with unlabeled 721.221 targets)?
A: more non-specific lysis; also recorded: increased

Q: And the “more bystander cells lysed compared to DMSO” value ([8]; 12.5 μM)?
A: approximately 24%

Q: And the “more bystander cells lysed compared to DMSO” value ([8]; 25 μM)?
A: ~39%

Q: What about the “more bystander cells lysed compared to DMSO” value ([8]; 50 μM) of the same compound?
A: ~40%

Q: What about the “non-specific lysis of Daoy cells” value ([8]; 12.5, 25 and 50 μM vs DMSO) of the same compound?
A: dose-dependent increases
